Measurements as given in ChEMBL document CHEMBL5241092, “The antibacterial activity of fluoroquinolone derivatives: An update (2018-2021)” (2021).
In brackets after ≈: the same amount, converted by molar mass. One block for each compound: values may come before it.

What was measured:
Type in all cases: functional
[1] = test system: Staphylococcus aureus; assay: Potency index, ratio of gatifloxacin MIC to test compound MIC for antibacterial activity against Staphylococcus aureus
[2] = test system: Staphylococcus aureus; assay: Antibacterial activity against methicillin susceptible Staphylococcus aureus
[3] = test system: Staphylococcus aureus; assay: Antibacterial activity against methicillin resistant Staphylococcus aureus 2
[4] = test system: Streptococcus pneumoniae; assay: Antibacterial activity against Streptococcus pneumoniae
[5] = test system: Staphylococcus aureus; assay: Potency index, ratio of vancomycin MIC to test compound MIC for antibacterial activity against methicillin susceptible Staphylococcus aureus
[6] = test system: Staphylococcus aureus; assay: Antibacterial activity against Staphylococcus aureus
[7] = test system: Staphylococcus aureus; assay: Antibacterial activity against methicillin resistant Staphylococcus aureus 3
[8] = test system: Streptococcus pneumoniae; assay: Potency index, ratio of gatifloxacin MIC to test compound MIC for antibacterial activity against methicillin susceptible Streptococcus pneumoniae
[9] = test system: Staphylococcus aureus; assay: Potency index, ratio of vancomycin MIC to test compound MIC for antibacterial activity against Staphylococcus aureus
[10] = test system: Streptococcus pneumoniae; assay: Potency index, ratio of vancomycin MIC to test compound MIC for antibacterial activity against methicillin susceptible Streptococcus pneumoniae
[11] = test system: Staphylococcus aureus; assay: Potency index, ratio of gatifloxacin MIC to test compound MIC for antibacterial activity against methicillin susceptible Staphylococcus aureus
[12] = test system: Staphylococcus aureus; assay: Antibacterial activity against methicillin resistant Staphylococcus aureus 1
[13] = test system: Klebsiella pneumoniae; assay: Antibacterial activity against Klebsiella pneumoniae
[14] = test system: Acinetobacter baumannii; assay: Antibacterial activity against quinolone resistant Acinetobacter baumannii
[15] = test system: Enterobacter; assay: Antibacterial activity against Enterobacter
[16] = test system: Enterococcus faecium; assay: Antibacterial activity against Enterococcus faecium
[17] = test system: Pseudomonas aeruginosa; assay: Antibacterial activity against Pseudomonas aeruginosa
[18] = test system: Chlamydia trachomatis; assay: Antibacterial activity against Chlamydia trachomatis
[19] = test system: Staphylococcus aureus; assay: Antibacterial activity against methicillin resistant Staphylococcus aureus
[20] = test system: Staphylococcus aureus; assay: Potency index, ratio of ciprofloxacin MIC to test compound MIC for antibacterial activity against methicillin resistant Staphylococcus aureus
[21] = test system: Staphylococcus aureus; assay: Potency index, ratio of ciprofloxacin MIC to test compound MIC for antibacterial activity against Staphylococcus aureus
[22] = test system: Escherichia coli; assay: Antibacterial activity against Escherichia coli UTI89
[23] = test system: Escherichia coli; assay: Antibacterial activity against Escherichia coli CFT073
[24] = test system: Klebsiella pneumoniae; assay: Synergistic antibacterial activity against Klebsiella pneumoniae assessed as reduction in mitomycin C MIC (reference value: […] to […] microg/ml)
[25] = test system: Pseudomonas aeruginosa; assay: Antibacterial activity against Pseudomonas aeruginosa PAO750
[26] = test system: Pseudomonas aeruginosa; assay: Synergistic antibacterial activity against Pseudomonas aeruginosa assessed as reduction in mitomycin C MIC (reference value: […] to […] microg/ml)
[27] = test system: Escherichia coli; assay: Synergistic antibacterial activity against Escherichia coli assessed as reduction in mitomycin C MIC (reference value: […] to […] microg/ml)
[28] = test system: Pseudomonas aeruginosa; assay: Antibacterial activity against Pseudomonas aeruginosa PAO1
[29] = test system: Enterobacter cloacae; assay: Synergistic antibacterial activity against Enterobacter cloacae assessed as reduction in mitomycin C MIC (reference value: […] to […] microg/ml)
[30] = test system: Pseudomonas aeruginosa; assay: Antibacterial activity against Pseudomonas aeruginosa PAO200
[31] = test system: Staphylococcus epidermidis; assay: Potency index, ratio of ciprofloxacin MIC to test compound MIC for antibacterial activity against methicillin sensitive Staphylococcus epidermidis
[32] = test system: Staphylococcus aureus; assay: Potency index, ratio of ciprofloxacin MIC to test compound MIC for antibacterial activity against methicillin sensitive Staphylococcus aureus
[33] = test system: Staphylococcus epidermidis; assay: Antibacterial activity against Staphylococcus epidermidis
[34] = test system: Escherichia coli; assay: Antibacterial activity against Escherichia coli

SMILES: CO/N=C1/C(=O)N(Cc2cn(CC(=O)N3CCN(c4c(F)cc5c(=O)c(C(=O)O)cn(C6CC6)c5c4OC)CC3C)nn2)c2ccc(F)cc21 (configuration not stated)
Ratio [1]: 2 | MIC [2]: 0.06 µg/mL (≈ 0.0869 µM) | MIC [3]: ≤ 0.03 µg/mL | MIC [4]: 0.06 µg/mL (≈ 0.0869 µM) | Ratio [5]: 2 | MIC [6]: 0.06 µg/mL (≈ 0.0869 µM) | MIC [7]: ≤ 0.03 µg/mL | Ratio [8]: 2 | Ratio [9]: 2 | Ratio [10]: 2 | Ratio [11]: 2 | MIC [12]: ≤ 0.03 µg/mL

SMILES: COc1c(N2CCN(C(=O)c3ccc4cccc(O)c4n3)CC2)c(F)cc2c(=O)c(C(=O)O)cn(C3CC3)c12
MIC [13]: ≤ 0.06 µg/mL | MIC [6]: ≤ 0.06 µg/mL | MIC [14]: ≤ 0.06 µg/mL | MIC [15]: ≤ 0.06 µg/mL | MIC [16]: ≤ 0.06 µg/mL | MIC [17]: ≤ 0.06 µg/mL | MBC [18]: 2 µg/mL (≈ 3.76 µM) | MIC [18]: ≤ 0.06 µg/mL

SMILES: O=C(O)c1cn(C2CC2)c2cc(N3CCN(Cc4nc5ccccc5c(=O)[nH]4)CC3)c(F)cc2c1=O
MIC [19]: 0.016 µg/mL (≈ 0.0327 µM) | Ratio [20]: 60 | MIC [6]: 0.016 µg/mL (≈ 0.0327 µM) | Ratio [21]: 30

MIC [22]: 0.1 µg/mL (≈ 0.0879 µM) | MIC [23]: 0.1 µg/mL (≈ 0.0879 µM)
SMILES: CC(=O)c1cn(C2CC2)c2cc(N3CCN(C(=O)CCCCCNC(=O)c4cc(O)c(O)c(C(=O)N[C@H]5COC(=O)[C@@H](NC(=O)c6cccc(O)c6O)COC(=O)[C@@H](NC(=O)c6cccc(O)c6O)COC5=O)c4)CC3)c(F)cc2c1=O

MIC [24]: 0.31 µg/mL | MIC [25]: 2 µg/mL (≈ 2.34 µM) | MIC [26]: 0.31 µg/mL | MIC [27]: 0.31 µg/mL | MIC [28]: 32 µg/mL (≈ 37.5 µM) | MIC [29]: 0.31 µg/mL | MIC [30]: 4 µg/mL (≈ 4.69 µM)
SMILES: NC[C@H]1O[C@H](O[C@H]2[C@H](OCCCCN3CCN(c4cc5c(cc4F)c(=O)c(C(=O)O)cn5C4CC4)CC3)[C@@H](O[C@H]3O[C@H](CO)[C@@H](O)[C@H](N)[C@H]3O)[C@H](N)C[C@@H]2N)[C@H](N)C[C@@H]1O

SMILES: O=C(CSC(=S)N1CCN(c2cc3c(cc2F)c(=O)c(C(=O)O)cn3C2CC2)CC1)Nc1ccccc1Cl
MIC [2]: 0.097 µg/mL (≈ 0.169 µM) | Ratio [31]: 2 | MIC [19]: 0.097 µg/mL (≈ 0.169 µM) | MIC [6]: 0.097 µg/mL (≈ 0.169 µM) | Ratio [32]: 2 | MIC [17]: 0.024 µg/mL (≈ 0.0417 µM) | Ratio [21]: 2 | MIC [33]: 0.097 µg/mL (≈ 0.169 µM) | MIC [34]: 0.024 µg/mL (≈ 0.0417 µM)
